Laboratory results reported in patent US11117856B2, “Polyamine compounds targeting the efflux pumps of multi-drug resistant bacterial pathogens and methods of using the same” (UNIVERSITY OF SOUTH FLORIDA, priority 2016, dated 2021).
pEC50: −log10 of the molar value. Values joined by “and” are separate entries in the source; they are usually repeats but may differ in a detail not shown here. Identical values can stand only once.

Key:
[1] = system: tetracycline resistant strain of P. aeruginosa; test: Checkerboard potentiation assay with tetracycline; format: cell-based; conditions: for FP* (Fold Potentiation, EC50): EC50 tetracycline with no TPI/with TPI; for FP* (Fold Potentiation, EC50) / FP^# (Fold Potentiation, EC90): 25 μg mL^−1 TPI; for FP^# (Fold Potentiation, EC90): EC90 tetracycline with no TPI/with TPI; for FP*^c (Fold Potentiation, EC50): Table 1, tetracycline EC50; for FP^#c (Fold Potentiation, EC90): Table 1, tetracycline EC90; for TPI (inhibitory concentration of the polyamines alone to produce EC values): polyamine alone, no tetracycline, 25 μg mL^−1 highest concentration tested
Method: The bacterial strains used in this study are multi-drug resistant clinical isolates that have previously been described (TABLE 2) (Fleeman, et al. J. Med. Chem. 2015, 58, 3340-3355). Organisms were grown in tryptic soy broth (TSB) for overnight cultures, and cation adjusted Mueller Hinton broth (CA-MH II) was used for experimental procedures. All incubations were performed at 37° C.
Scaffold ranking library samples and individual polyamines were screened using checkerboard inhibitory assays to assess the potentiation of tetracycline and chloramphenicol. The test utilized a 96-well plate microtiter assay where the concentration of the scaffold or individual polyamine was decreased from 25 μg mL^−1 to 0.8 μg mL^−1 (average molarity of 65 μM to 4 μM) along the rows, and the concentration of tetracycline or chloramphenicol was increased from 0.4 μM to 100 μM across the columns. Plates were incubated statically at 37° C. for 20 hours, and the optical density (OD600) was determined using a Synergy 2 plate reader (Biotek). Potentiation modeling (detailed below) was performed to determine fold change in the 50% and 90% effective concentration of tetracycline or chloramphenicol.
Potentiation was quantified using a mathematical model developed by our group to assess the ability of library samples and individual compounds to effectively enhance the activity of tetracycline or chloramphenicol (Hoel, D. G. Statistical Aspects of Chemical Mixtures. Methods for assessing the effects of mixtures of chemicals. 1987, New York). […] In this way, only libraries and compounds that potentiated tetracycline or chloramphenicol activity were pursued. The model is based on the following equation for modeling the percentage activity of a mixture of two agents with independent action (Hoel, et al. Statistical Aspects of Chemical Mixtures. Methods for assessing the effects of mixtures of chemicals. 1987, New York): %Antibiotic & Comp(x1,x2)=%Antibiotic(x1)+%Comp(x2)−%Antibiotic(x1)·%Comp(x2)
Here, x1 and x2 are the concentrations of antibiotic (tetracycline or chloramphenicol) and library/compound (Comp) tested, respectively. This equation can be rearranged to model the effective percent activity (EC) of the antibiotic alone, after accounting for compound activity:
[formula] Thus, the model-adjusted checkerboards show the antibiotic activity post-potentiation, and from that one can determine the true change in MIC.

[2] = system: Hek293T cells; test: MTT cytotoxicity assay; format: cell-based, human; conditions: 25 μg mL^−1, 48 hours
Method: (§1) To assess toxicity of polyamine compounds we used HepG2 human liver carcinoma cells and Hek293T human embryonic kidney epithelial cells. […] J. Med. Chem. 2015, 58, 3340-3355). […] Cells were then incubated for 48 hours at 37° C. with 5% CO2. Following this, viability was assessed by the addition of MTT and measuring the OD570 in a Biotek plate reader. Percent recovery was determined compared to no drug controls.

[3] = system: HepG2 cells; test: MTT cytotoxicity assay; format: cell-based, human; conditions: 25 μg mL^−1 (highest concentration tested), 48 hours
Method: as §1

[4] = system: P. aeruginosa; test: Bactericidal assessment with tetracycline; format: cell-based
Method: (§2) Lead agents were screened for bactericidal activity as described previously (Van Horn, et al. J. Med. Chem. 2014, 57, 3075-3093; […], et al. J. Med. Chem. 2015, 58, 3340-3355), with the following modifications. […] Biofilm experiments were performed similar to those described previously ([…], et al. J. Med. Chem. 2015, 58, 3340-3355; von Salm, et al. Org. Lett. 2016, 18, 2596-2599), with the following modifications.

[5] = system: P. aeruginosa biofilm; test: Pre-formed biofilm viability assessment with tetracycline; format: cell-based; conditions: for biofilm cells recovered, EPI alone: 25 μg mL^−1 (MPC), no tetracycline;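 for biofilm recovery, combination treatment: percent recovery versus no treatment controls after 20 Hours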
Method: as §2

[6] = system: P. aeruginosa cells; test: Bacterial membrane depolarization (DiSC3 dye); format: cell-based; conditions: 25 μg mL^−1
Method: To determine the level of membrane depolarization by polyamine compounds a 3,3′-dipropylthiadicarbocyanine Iodide (DiSC3) fluorescence dye was used. Exponentially growing cultures were prepared as described above, before being harvested by centrifugation. Cells were next washed in buffer A (5 mM HEPES pH 7.2, 5 mM glucose) and resuspended to an OD600 of 0.2 in the same buffer containing 100 mM KCl and 2 μM DiSC3. Samples were allowed to equilibrate for 15 minutes at room temperature to ensure uptake and quenching of the dye in bacterial membranes. Cells were aliquoted into 96-well plates and polyamines were added alongside the known efflux inhibitor PAN (all at 25 μg mL^−1). Nisin (25 μg mL^−1) was used as a positive control to display depolarization effects. A Biotek plate reader was used to monitor fluorescence of wells, with a 622 nm excitation and 670 nm emission. For graphical representation, the maximum relative fluorescence at 2 minutes was used for comparison of lead agents to controls.

[7] = 12 μM tetracycline + MPC of EPI
[8] = 50 μM tetracycline + MPC of EPI
[9] = 25 μM tetracycline + MPC of EPI

NCCC[C@H](CN)NC[C@H](Cc1ccccc1)NCCc1ccccc1 [TPI 271, (R)—N^2—((S)-2-(phenethylamino)-3-phenylpropyl)pentane-1,2,5-triamine]
FP* (Fold Potentiation, EC50) [1]: 8.2 fold | FP^# (Fold Potentiation, EC90) [1]: 8.5 fold | FP*^c (Fold Potentiation, EC50) [1]: 8.2 fold | FP^#c (Fold Potentiation, EC90) [1]: 8.5 fold | TPI (inhibitory concentration of the polyamines alone to produce EC values) [1]: >25 µg/mL | percent recovery of Hek293T cells compared to solvent only controls [2]: 75% | HepG2 cell viability / recovery [3]: 74% | percent recovery, combination treatment [4, 7]: 2% | percent recovery, combination treatment [4, 8]: 0.02% | biofilm recovery, combination treatment [5, 9]: 0.5% | biofilm cells recovered, EPI alone [5]: 99.99% | biofilm recovery, combination treatment [5, 8]: 0.2%

CNCCCC[C@@H](CN)NC[C@H](Cc1ccccc1)NCCc1ccccc1 [TPI 247, (S)—N6-methyl-N2—((S)-2-(phenethylamino)-3-phenylpropyl)hexane-1,2,6-triamine]
FP* (Fold Potentiation, EC50) [1]: 5 fold | FP^# (Fold Potentiation, EC90) [1]: 7.5 fold | FP*^c (Fold Potentiation, EC50) [1]: 5 fold and 5.0 fold | FP^#c (Fold Potentiation, EC90) [1]: 8.3 fold | TPI (inhibitory concentration of the polyamines alone to produce EC values) [1]: >25 µg/mL | percent recovery of Hek293T cells compared to solvent only controls [2]: 84% | percent recovery, combination treatment [4, 7]: 2.9% | percent recovery, combination treatment [4, 8]: 0.04% | biofilm recovery, combination treatment [5, 9]: 0.6% | biofilm cells recovered, EPI alone [5]: 99.99% | biofilm recovery, combination treatment [5, 8]: 0.2%

phenylalanine arginine beta naphthalamide [PAβN, reference compound]
TPL (inhibitory concentration of the Torrey Pines Library alone to produce an EC90 value) [1]: >25 µg/mL | FP (Fold Potentiation, EC90) ([1]; EC90 tetracycline with no TPL/EC90 tetracycline with TPL, 25 μg mL−1 library): 8.01 fold | EPI*^a (inhibitory concentration of the individual Efflux Pump Inhibitor alone) ([1]; EPI alone, 50% effective concentration): >25 µg/mL | FP*^c (Fold Potentiation, EC50) [1]: 65.5 fold | FP^#c (Fold Potentiation, EC90) [1]: 8 fold | change in DiSC3 fluorescence (membrane depolarization) [6]: strong increase in fluorescence | percent recovery of Hek293T cells compared to solvent only controls [2]: 63% | HepG2 cell viability / recovery [3]: 68% | percent recovery, combination treatment [4, 7]: 0.79% | percent recovery, combination treatment [4, 9]: 0.2% | bacterial recovery (viability), EPI alone ([4]; 25 μg mL^−1, no tetracycline): 76% | percent recovery, combination treatment [4, 8]: 0.02% | biofilm recovery, combination treatment [5, 9]: 7% | biofilm recovery, combination treatment [5, 8]: 1%

nisin
change in DiSC3 fluorescence (membrane depolarization) [6]: strong increase in fluorescence

CN(C)[C@@H]1C(O)=C(C(N)=O)C(=O)[C@@]2(O)C(O)=C3C(=O)c4c(O)cccc4[C@@](C)(O)[C@H]3C[C@@H]12 [tetracycline, reference compound]
pEC50 ([1]; Pseudomonas aeruginosa, no EPI, average across all replicates, read-out: tetracycline alone EC50): 4.32 | EC90 ([1]; no library or EPI, average across all replicates, read-out: tetracycline alone EC90): 82.5 µM | less recovery on increasing tetracycline alone ([4]; from 12 μM to 25 μM): 17.8% | bacterial recovery, tetracycline alone ([4]; tetracycline 12 μM): 53% | bacterial recovery, tetracycline alone ([4]; tetracycline 25 μM): 35% | bacterial recovery, tetracycline alone ([4]; tetracycline 50 μM): 1% | more biofilm eradication on increasing tetracycline by itself ([5]; from 12 μM to 25 μM): 4% | biofilm cells recovered, tetracycline alone ([5]; tetracycline 50 μM): 9%
